Test results as given in patent publication US8217035B2, “Pyrimidine derivatives used as PI-3-kinase inhibitors” (Novartis AG, priority 2006, dated 2012).
Where two headings read alike, the source gives them in different places.

What was measured:
PI3 kinase alpha = PI3 kinase alpha (Homo sapiens, UniProt P42336); assay: PI3K ATP depletion assay (Biological Method 1, Assay 3; KinaseGlo luminescence); type: biochemical; details: ATP depletion assay; read-out: PI3 Kinase Alpha, IC50
In short: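 Compound in DMSO was mixed with 10 nM PI3 kinase and 5 μg/mL phosphatidylinositol, and the reaction was started with 2 μM ATP. It ran to about 50% ATP depletion and was stopped with KinaseGlo.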

[1] = system: pSer473 Akt in A2780 cells; assay: pSer473 Akt assay to monitor PI3K pathway in A2780 cells (Biological Method 2, MSD); type: cell-based; details: Homo sapiens; inhibition of Akt phosphorylation, A2780 cells
In short: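 A2780 ovarian cancer cells in DMEM/10% FBS were treated with compound for 1 h at 37 °C, then lysed. pSer473-Akt and total Akt were measured by MSD electrochemiluminescence immunoassay. The pSer473/total Akt ratio gave % inhibition versus DMSO, from which EC50 was derived.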

[2] = system: A2780 ovarian cancer cells; assay: Cellular proliferation in A2780 cells, Cell Titer Glo (Biological Method 4); type: cell-based; details: Homo sapiens; ovarian cancer cell line A2780
In short: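 A2780 cells seeded at 1,000/well in DMEM with 10% FBS, at least 2 h before compound, then exposed 72 h at 37 °C, 5% CO2. Viable cells measured by Cell Titer Glo luminescence; EC50 calculated from duplicate conditions.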

[3] = system: Akt^Ser473 phosphorylation in A2780 xenograft tumors; assay: In vivo target modulation (PK/PD) in A2780 ovarian cancer xenograft tumors (Biological Method 3); set-up: species or system nu/nu mice; details: for inhibition at 60 mg/kg: 60 mg/kg single oral dose; for inhibition at 60 mg/kg / inhibition at 100 mg/kg: A2780 xenograft tumors, read-out: Modulation of Akt^Ser473 phosphorylation (percentage inhibition compared to vehicle); for inhibition at 100 mg/kg: 100 mg/kg single oral dose
Source text: (§1) A2780 ovarian cancer cells obtained from George Coukos (Fox Chase Cancer Center, University of Pennsylvania, Philadelphia, Pa.) were maintained in DMEM (Invitrogen, Inc.) supplemented with 10% heat-inactivated fetal bovine serum with 1% glutamine. Cells were propagated as recommended by the Dr. Coukos and colleagues. Female nu/nu mice (8-12 weeks old, 20-25 g, Charles River) were used for all in vivo pharmacology studies. The mice were housed and maintained in accordance with state and federal guidelines for the humane treatment and care of laboratory animals and received food and water ad libitum. Cancer cells were harvested from mid-log phase cultures using trypsin-EDTA (Invitrogen, Inc.). Five million cells were subcutaneously injected into the right flank of each mouse. Compound treatment was initiated when tumor size reached to 300-400 mm^3 for PK/PD studies and 200-300 mm^3 for efficacy studies. All compound treatment was administrated orally. Tumor volumes were determined by using StudyDirector software.
For PK/PD dose-dependent studies, tumor-bearing mice were given a single oral dose of compound at different concentrations (10, 30, 60 and 100 mg/kg or vehicle) and tumors were resected at 10 hr or 24 hr after dosing. Blood samples were taken by cardiac puncture using a syringe primed with heparin sulfate. Resected tumors were snap frozen on dry ice and pulverized using a liquid nitrogen-cooled cryomortar and pestle, and lysed in cold cell extraction buffer (Biosource) containing protease inhibitor tablet (Complete; EDTA-free, Amersham). Supernatants were taken after centrifugation of tumor lysates at 300×g for 10 min at 4° C. and the protein concentration in each supernatant was determined by BCA (BioRad). An equal amount of protein from each tumor lysate was loaded onto 10% Tris-glycine gels (Invitrogen), for sodiumdoceylsulfate-polyacrylamide gel electrophoresis (SDS-PAGE) after which proteins were transferred from the gel onto PVDF membrane. Membranes were probed with antibodies that recognize phosphoAkt^Ser473 or phosphoAkt^Thr308 (Cell Signaling) followed by secondary goat anti-rabbit IgG conjugated to HRP(Amersham). Positive bands were visualized by enhanced chemiluminescence with X-ray film. Similar procedures were used to determine total AKT in the same tumor lysates to serve as normalization for total protein in each determination. The density of the positive band on the X-ray film was scanned and the target modulation for each compound was expressed as percentage inhibition by each compound compared to vehicle treatment.
(§2) For efficacy studies, A2780 cancer cells (5×10^6 in 100 μl of DMEM culture medium) were injected subcutaneously into the right flank of each nu/nu mouse. […] Tumor growth and animal body weight was measured twice weekly with daily clinical observation to monitor potential toxicities related to the treatment. […] Activation of the PI3K signaling pathway results in the phosphorylation of the downstream signaling molecule Akt at Ser^473 and/or Thr^308. Compound modulation of Akt^Ser473 phosphorylation was examined in A2780 xenograft tumors at time points ranging from 30 min to 36 hr after a single compound dose at 60 or 100 mg/kg.

A2780 tumor xenograft = assay: Efficacy study in A2780 ovarian cancer xenograft model (Biological Method 3); type: in vivo, nu/nu mice
Source text: as §1, §2

[4] = 60 mg/kg oral daily, A2780 model

Sequence of PI3 kinase alpha (P42336 whole entry): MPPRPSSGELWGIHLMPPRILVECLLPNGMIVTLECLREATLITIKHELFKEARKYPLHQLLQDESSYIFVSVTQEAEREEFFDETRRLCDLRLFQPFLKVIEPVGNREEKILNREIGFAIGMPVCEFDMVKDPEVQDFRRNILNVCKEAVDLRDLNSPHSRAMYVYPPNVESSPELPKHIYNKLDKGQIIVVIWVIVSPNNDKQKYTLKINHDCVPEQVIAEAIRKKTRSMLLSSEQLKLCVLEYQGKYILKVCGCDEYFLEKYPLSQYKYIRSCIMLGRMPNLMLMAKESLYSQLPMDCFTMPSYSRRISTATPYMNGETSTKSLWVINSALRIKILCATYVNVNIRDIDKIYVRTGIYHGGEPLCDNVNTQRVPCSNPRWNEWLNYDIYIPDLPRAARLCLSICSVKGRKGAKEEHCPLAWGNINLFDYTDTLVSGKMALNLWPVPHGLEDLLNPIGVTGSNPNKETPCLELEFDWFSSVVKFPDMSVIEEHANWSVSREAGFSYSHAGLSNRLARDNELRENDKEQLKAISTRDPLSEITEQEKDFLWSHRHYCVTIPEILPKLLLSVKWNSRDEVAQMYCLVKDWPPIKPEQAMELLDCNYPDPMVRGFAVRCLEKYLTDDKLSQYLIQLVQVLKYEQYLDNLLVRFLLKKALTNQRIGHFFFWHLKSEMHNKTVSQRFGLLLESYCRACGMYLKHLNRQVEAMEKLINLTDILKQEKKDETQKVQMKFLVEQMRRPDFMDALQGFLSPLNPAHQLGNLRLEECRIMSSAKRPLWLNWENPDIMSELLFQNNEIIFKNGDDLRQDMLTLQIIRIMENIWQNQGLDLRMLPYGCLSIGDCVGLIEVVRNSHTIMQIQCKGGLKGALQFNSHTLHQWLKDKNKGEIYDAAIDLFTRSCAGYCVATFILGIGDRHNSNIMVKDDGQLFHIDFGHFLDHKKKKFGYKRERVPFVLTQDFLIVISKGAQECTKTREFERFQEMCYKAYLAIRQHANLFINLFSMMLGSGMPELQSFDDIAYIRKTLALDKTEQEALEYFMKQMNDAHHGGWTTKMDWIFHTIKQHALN
Sequence of PI3 kinase alpha (P27986 whole entry partner): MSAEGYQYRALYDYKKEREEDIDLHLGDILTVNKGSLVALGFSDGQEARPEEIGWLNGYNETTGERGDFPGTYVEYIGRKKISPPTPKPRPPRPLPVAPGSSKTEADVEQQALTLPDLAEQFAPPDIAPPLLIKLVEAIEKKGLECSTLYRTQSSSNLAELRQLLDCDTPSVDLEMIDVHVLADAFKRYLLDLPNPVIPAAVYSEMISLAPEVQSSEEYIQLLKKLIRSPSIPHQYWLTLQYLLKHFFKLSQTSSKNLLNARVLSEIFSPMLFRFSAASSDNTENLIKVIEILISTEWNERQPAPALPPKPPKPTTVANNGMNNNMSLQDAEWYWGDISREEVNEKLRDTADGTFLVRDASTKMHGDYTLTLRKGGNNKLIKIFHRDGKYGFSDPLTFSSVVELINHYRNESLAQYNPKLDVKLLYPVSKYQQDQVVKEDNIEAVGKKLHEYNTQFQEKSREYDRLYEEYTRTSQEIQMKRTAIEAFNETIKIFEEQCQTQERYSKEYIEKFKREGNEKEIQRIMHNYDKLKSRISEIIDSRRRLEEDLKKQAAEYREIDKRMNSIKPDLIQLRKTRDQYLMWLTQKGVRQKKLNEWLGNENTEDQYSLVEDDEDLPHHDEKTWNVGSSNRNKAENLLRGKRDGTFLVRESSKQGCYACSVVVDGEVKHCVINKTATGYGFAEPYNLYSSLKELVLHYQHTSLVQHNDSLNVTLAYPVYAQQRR

IC50 (PI3 kinase alpha) [nM] | EC50 [1] [nM] | EC50 [2] [nM] | SMILES | inhibition at 60 mg/kg ([3]; Mus musculus, 10 hr) [%] | Duration of target modulation (50% inhibition) ([3]; 60 mg/kg, A2780 tumors) [h] | inhibition at 100 mg/kg ([3]; Mus musculus, 8 hr) [%] | Tumor growth inhibition (A2780 tumor xenograft; 10 mg/kg oral twice daily, A2780 tumors (FIG. 1)) | Tumor growth inhibition (A2780 tumor xenograft; 60 mg/kg oral twice daily, A2780 tumors (FIG. 1)) [%] | inhibition at 30 mg/kg ([3]; Mus musculus, A2780, 30 mg/kg oral b.i.d., read-out: Target inhibition in A2780 tumors, sustained over the whole dosing period) [%] | inhibition at 100 mg/kg ([3]; Mus musculus, 10 hr) [%] | Antitumor activity (A2780 tumor xenograft; 30 mg/kg oral b.i.d., A2780 model (FIG. 5)) | Tumor growth inhibition (A2780 tumor xenograft; 30 mg/kg oral daily, A2780 model) [%] | Tumor growth inhibition (A2780 tumor xenograft; [4]) [%] | Tumor growth inhibition (A2780 tumor xenograft; 100 mg/kg oral daily, A2780 model (FIG. 2))
< 1000 | < 1000 | < 10000 | Nc1ncc(-c2cc(OC3CCOCC3)nc(N3CCOCC3)n2)c(C(F)(F)F)n1 [Compound 66] | < 50 | – | – | – | – | – | – | – | – | – | –
– | < 1000 | < 1000 | COc1ccc(Nc2cc(-c3cnc(N)nc3)nc(N3CCOCC3)n2)cn1 [Compound 91] | – | 8 | > 50 | no inhibitory activity | 50 | – | – | – | – | – | –
– | < 1000 | < 1000 | Nc1cc(C(F)(F)F)c(-c2cc(N3CCOCC3)nc(N3CCOCC3)n2)cn1 [Compound 10] | > 75 | – | – | – | – | < 75 | > 75 | significant antitumor activity | 40 | 70 | tumor growth stasis
< 1000 | < 1000 | < 1000 | Nc1ncc(-c2cc(OC3CCOCC3)nc(N3CCOCC3)n2)c(N)n1 [Compound 84] | 50 to 75 | – | – | – | – | – | – | – | – | < 50 | –
– | < 1000 | < 1000 | Nc1ccc(-c2cc(Nc3cnc4ccccc4c3)nc(N3CCOCC3)n2)cn1 [Compound 183] | – | – | 50 to 75 | – | – | – | – | – | – | – | –
< 1000 | < 1000 | < 1000 | Cc1c(Nc2cnc3ccccc3c2)nc(N2CCOCC2)nc1-c1cnc(N)nc1 [Compound 103] | – | – | < 50 | – | – | – | – | – | – | – | –
